Results on two compounds are retold here after publication PMC3447774, “Genes Encoding Cher-TPR Fusion Proteins Are Predominantly Found in Gene Clusters Encoding Chemosensory Pathways with Alternative Cellular Functions” (PLoS ONE, 2012).

Common to all, as to assay: isothermal titration calorimetry
Format in all cases: binding
Background: ITC needs no label: the signal is the heat of the interaction.

Assay [1] deals with T1, WspC-Ppshort (Pseudomonas putida, UniProt Q88MS8).
T1 construct: amino acids 1-240, CheR domain only, lacks linker and TPR domain
T1 sequence (Q88MS8 1-283): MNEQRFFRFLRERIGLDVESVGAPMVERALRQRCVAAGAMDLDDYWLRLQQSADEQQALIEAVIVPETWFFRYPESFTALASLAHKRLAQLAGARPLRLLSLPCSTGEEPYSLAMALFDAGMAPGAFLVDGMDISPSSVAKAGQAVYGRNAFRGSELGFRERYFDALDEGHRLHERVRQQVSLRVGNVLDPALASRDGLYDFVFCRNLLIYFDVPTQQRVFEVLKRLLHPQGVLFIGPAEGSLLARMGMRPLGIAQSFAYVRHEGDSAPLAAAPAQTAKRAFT
The text has this:
isothermal titration calorimetry on WspC-Ppshort

The target of assay [2] is T2, WspC-Pp (Pseudomonas putida, UniProt Q88MS8).
T2 construct: full-length CheR-linker-TPR protein; monomer
T2 sequence (Q88MS8 whole entry): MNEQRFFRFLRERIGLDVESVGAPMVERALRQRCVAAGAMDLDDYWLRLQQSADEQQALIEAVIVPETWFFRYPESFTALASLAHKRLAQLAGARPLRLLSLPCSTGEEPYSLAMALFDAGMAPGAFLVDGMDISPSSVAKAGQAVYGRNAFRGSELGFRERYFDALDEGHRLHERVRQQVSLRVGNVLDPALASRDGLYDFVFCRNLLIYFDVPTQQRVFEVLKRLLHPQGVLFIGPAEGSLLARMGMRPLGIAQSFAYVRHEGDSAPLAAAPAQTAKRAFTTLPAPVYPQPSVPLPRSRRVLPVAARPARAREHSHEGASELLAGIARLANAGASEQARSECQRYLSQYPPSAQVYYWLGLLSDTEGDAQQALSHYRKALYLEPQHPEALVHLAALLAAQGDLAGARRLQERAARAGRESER
The source says:
isothermal titration calorimetry on WspC-Pp

In assay [3] the target is T3, WspC-Ppmiddle (Pseudomonas putida, UniProt Q88MS8).
T3 construct: amino acids 1-355, CheR domain plus linker, lacks TPR domain
T3 sequence (Q88MS8 1-355): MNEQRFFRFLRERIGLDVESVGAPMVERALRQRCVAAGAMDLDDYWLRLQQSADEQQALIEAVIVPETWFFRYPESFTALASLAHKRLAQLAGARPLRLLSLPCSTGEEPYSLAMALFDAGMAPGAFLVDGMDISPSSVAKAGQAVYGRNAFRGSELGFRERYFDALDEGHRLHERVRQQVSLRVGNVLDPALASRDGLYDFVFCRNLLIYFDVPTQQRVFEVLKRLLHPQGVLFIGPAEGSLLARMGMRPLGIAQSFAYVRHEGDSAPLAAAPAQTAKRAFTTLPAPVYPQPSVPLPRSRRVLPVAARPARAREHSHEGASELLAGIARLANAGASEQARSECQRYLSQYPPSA
The source says:
isothermal titration calorimetry on WspC-Ppmiddle

What is called Kd is the concentration at which binding is half-saturated. Read a low Kd as a tighter complex. Regarding `Nc1ncnc2c1ncn2[C@@H]1O[C@H](CSCC[C@H](N)C(=O)O)[C@@H](O)[C@H]1O` [S-adenosylhomocysteine], the Kd was found to be 2 ± 0.1 µM in assay [1], 1.7 ± 0.1 µM in assay [2] and 1.6 ± 0.1 µM in assay [3].

In the case of `C[S+](CC[C@H](N)C(=O)O)C[C@H]1O[C@@H](n2cnc3c(N)ncnc32)[C@H](O)[C@@H]1O` (stereo partly drawn) [S-adenosylmethionine], the results for the Kd in assay [1], in assay [2] and in assay [3] were 41 ± 4 µM, 43 ± 2 µM and 35 ± 2 µM, respectively.
